According to patent publication US20210221785A1, “AMINO-PYRIMIDONYL DERIVATIVES, A PROCESS FOR THEIR PREPARATION AND PHARMACEUTICAL COMPOSITIONS CONTAINING THEM” (LES LABORATOIRES SERVIER, priority 2018, published 2021):

Assays:
[1] = target: T1, His-His-USP7 (aa208-560, |C315A|) (Homo sapiens, UniProt Q93009, C315A); test: Evaluation of the inhibition of USP7 by the Fluorescence Intensity (FLINT) readings; assay type: biochemical; conditions: 0.25 nM His-His-USP7, compound incubated 60 minutes at 30° C., 500 nM Ubiquitin-Rhodamine-110 substrate; 50% reduction in kinetic rate
T1 construct: His-His-USP7 (aa208-560, |C315A|); His-His (N)
Description: USP7 activity was measured using Rhodamine-110 c-terminal labelled Ubiquitin as a substrate (UbiQ Bio). Incubation with USP7 results in the release of Rhodamine-110 leading to an increase in fluorescence which can be used in the continuous measurement of USP7 activity.
The USP7 reactions were performed in a 50 μL volume, in 384 well black solid low binding plates (Corning #3575). The reaction buffer consisted of 100 mM Bicine pH 8.0, 0.01% TritonX100, 1 mM TCEP, and 10% DMSO.
0.25 nM His-His-USP7 (aa208-560, |C315A|) was incubated with compound (final concentration 10% DMSO) for 60 minutes at 30° C. The reaction was then initiated by the addition of 500 nM Ubiquitin-Rhodamme-110 substrate and the plate read every 3 minutes for 21 minutes to measure the release of Rhodamine-110. Fluorescence Intensity (FLINT) readings were measured using a […] plate reader (Ex.485 nm, Em.535 nm).
The inhibition of increasing doses of compound was expressed as a percentage reduction in kinetic rate compared to the kinetic rates established between ‘DMSO only’ and ‘total inhibition’ controls (no USP7). The inhibitory concentrations that gave a 50% reduction in kinetic rate (IC50) were determined, from 11-point dose response cures, in XL-Fit using a 4-Parameter Logistic Model 205 (Sigmoidal Dose-Response Model).

[2] = test system: Z138 mantle cell lymphoma tumour cell lines; test: In vitro cytotoxicity, MTT assay; assay type: cell-based; conditions: Z138 cells exposed to the test compounds for 96 hours, cell viability vs DMSO treated cells
Description: The cytotoxicity studies were evaluated by MTT [3-(4,5-dimethylthiazol-2-yl)-2,5-diphenyltetrazolium bromide] assay and carried out on Z138 mantle cell lymphoma tumour cell lines. The cells are distributed onto microplates and exposed to the test compounds for 96 hours. MTT is then added for 4 hours and converted by NAD(P)H-dependent cellular oxidoreductase enzymes in formazan, which has a purple color. The viable cell number is proportional to the production of formuan salts and cell viability can be quantified by the absorbance of the solution at 540 nm with a speetrophotometer (Carmichael et al., Cancer Res. 1987, 47, 936-942).

T1 sequence (Q93009 208-560 C315A): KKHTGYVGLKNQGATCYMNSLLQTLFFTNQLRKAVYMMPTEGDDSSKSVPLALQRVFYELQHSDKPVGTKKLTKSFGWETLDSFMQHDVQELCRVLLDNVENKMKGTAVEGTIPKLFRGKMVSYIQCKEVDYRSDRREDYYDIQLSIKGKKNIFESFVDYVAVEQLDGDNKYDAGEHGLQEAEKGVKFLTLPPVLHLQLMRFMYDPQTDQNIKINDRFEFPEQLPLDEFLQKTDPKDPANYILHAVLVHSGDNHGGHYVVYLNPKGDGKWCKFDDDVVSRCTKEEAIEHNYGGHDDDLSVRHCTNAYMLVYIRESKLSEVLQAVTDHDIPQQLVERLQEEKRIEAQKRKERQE

| Molecule | IC50 [1] | IC50 [2] | IC50 ([2]; Homo sapiens, Z-138, 96 h) |
| --- | --- | --- | --- |
| 5-amino-6-(3-chlorophenyl)-3-({1-[(1R,2R)-4,4-difluoro-2-phenylcyclohexane-1-carbonyl]-4-hydroxypiperidin-4-yl}methyl)pyrimidin-4(3H)-one [Example 13] | 97.5 nM | 0.178 µM |  |
| C#C[C@]1(O)CC[C@@H](C(=O)N2CCC(O)(Cn3cnc(Oc4ccc(F)cc4)c(N)c3=O)CC2)[C@H](c2ccccc2)C1 (relative stereo) [Example 92, rel-5-amino-3-[(1-{[(1R,2R,4S)-4-ethynyl-4-hydroxy-2-phenyl-cyclohexyl]carbonyl}-4-hydroxypiperidin-4-yl)methyl]-6-(4-fluorophenoxy)pyrimidin-4-one] | 230 nM |  | 0.189 µM |
| C#CC1(F)CC[C@@H](C(=O)N2CCC(O)(Cn3cnc(Oc4ccc(F)cc4)c(N)c3=O)CC2)[C@H](c2ccccc2)C1 (relative stereo) [Example 93, rel-5-amino-3-({1-[(1R,2R)-4-ethynyl-4-fluoro-2-phenyl-cyclohexanecarbonyl]-4-hydroxypiperidin-4-yl}methyI)-6-(4-fluorophenoxy)-3,4-dihydropyrimidin-4-one] | 66.3 nM |  | 0.0411 µM |
| Nc1c(Oc2ccc(F)cc2)ncn(CC2(O)CCN(C(=O)[C@@H]3CC[C@](O)(Cc4ccccc4)C[C@H]3c3ccccc3)CC2)c1=O (relative stereo) [Example 94, rel-5-amino-3-({1-[(1R,2R,4R)-4-benzyl-4-hydroxy-2-phenyl-cyclohexanecarbonyl]-4-hydroxypiperidin-4-yl}methyl)-6-(4-fluorophenoxy)-3,4-dihydropyrimidin-4-one] | 63.4 nM |  | 0.0494 µM |
| Nc1c(Oc2ccc(F)cc2)ncn(CC2(O)CCN(C(=O)[C@@H]3CC[C@@](O)(Cc4ccccc4)C[C@H]3c3ccccc3)CC2)c1=O (relative stereo) [Example 95, rel-5-amino-3-({1-[(1R,2R,4S)-4-benzyl-4-hydroxy-2-phenyl-cyclohexanecarbonyl]-4-hydroxypiperidin-4-yl}methyl)-6-(4-fluorophenoxy)-3,4-dihydropyrimidin-4-one] | 172 nM |  | 0.253 µM |
| NC(=O)c1ccc(Oc2ncn(CC3(O)CCN(C(=O)[C@@H]4CCC(F)(F)C[C@H]4c4ccccc4)CC3)c(=O)c2N)cc1F [Example 81, 4-{[5-amino-1-({1-[(1R,2R)-4,4-difluoro-2-phenylcyclohexane-1-carbonyl]-4-hydroxypiperidin-4-yl}methyl)-6-oxo-1,6-dihydropyrimidin-4-yl]oxy}-2-fluorobenzamide] | 403 nM |  |  |
| Nc1c(Oc2cccnc2)ncn(CC2(O)CCN(C(=O)C3CCC(F)(F)CC3c3ccccc3)CC2)c1=O (stereo not drawn) [Example 84, 5-amino-3-({1-[(1,2-trans)-4,4-difluoro-2-phenylcyclohexane-1-carbonyl]-4-hydroxypiperidin-4-yl}methyl)-6-[(pyridin-3-yl)oxy]pyrimidin-4(3H)-one] | 212 nM |  |  |
| Nc1c(Oc2ccc(F)cc2)ncn(CC2(O)CCN(C(=O)C3CCC(O)(Cc4ccc(F)cc4)CC3c3ccccc3)CC2)c1=O [Example 99, rel-5-amino-6-(4-fluorophenoxy)-3-({1-[(1R,2R,4R)-4-[(4-fluorophenyl))methyl]-4-hydroxy-2-phenylcyclohexanecarbonyl]-4-hydroxypiperidin-4-yl}methyl)-3,4-dihydropyrimidin-4-one] |  |  | 0.0128 µM |
| Nc1c(Oc2cnc3cc[nH]c3c2)ncn(CC2(O)CCN(C(=O)[C@@H]3CCC(F)(F)C[C@H]3c3ccccc3)CC2)c1=O [Example 106, 5-amino-3-([1-[(1R,2R)-4,4-difluoro-2-phenylcyclohexane-1-carbonyl]-4-hydroxypiperidin-4-yl]methyl)-6-[(1H-pyrrolo[3,2-b]pyridin-6-yl)oxy]pyrimidin-4(3H)-one] | 152 nM |  |  |
| NC(=O)c1ccc(Oc2ncn(CC3(O)CCN(C(=O)[C@@H]4CCC(F)(F)C[C@H]4c4ccccc4)CC3)c(=O)c2N)c(Cl)c1 [Example 107, 4-{[5-amino-1-({1-[(1R,2R)-4,4-difluoro-2-phenylcyclohexane-1-carbonyl]-4-hydroxypiperidin-4-yl}methyl)6-oxo-1,6-dihydropyrimidin-4-yl]oxy}-3-chlorobenzamide] | 479 nM |  |  |
| Nc1c(Oc2ccc(CCC3CCNCC3)cc2)ncn(CC2(O)CCN(C(=O)[C@@H]3CCC(F)(F)C[C@H]3c3ccccc3)CC2)c1=O [Example 112, 5-amino-3-([1-[(1R,2R)-4,4-difluoro-2-phenylcyclohexane-1-carbonyl]-4-hydroxypiperidin-4-yl]methyl)-6-[4-[2-(piperidin-4-yl)ethyl]phenoxy]pyrimidin-4(3H)-one] | 70.8 nM |  |  |

The next lines start with results.

| IC50 [1] | Molecule | IC50 [2] | IC50 ([2]; Homo sapiens, Z-138, 96 h) |
| --- | --- | --- | --- |
| 140 nM | Nc1c(Oc2ccc(CN3CCOCC3)cc2)ncn(CC2(O)CCN(C(=O)[C@@H]3CCC(F)(F)C[C@H]3c3ccccc3)CC2)c1=O [Example 113, 5-amino-3-({1-[(1R,2R)-4,4-difluoro-2-phenylcyclohexane-1-carbonyl]-4-hydroxypiperidin-4-yl}methyl)-6-{4-[(morpholin-4-yl)methyl]phenoxyl}pyrimidin-4(3H)-one] |  |  |
| 48.7 nM | Nc1c(Oc2ccc(CCC3CCCCN3)cc2)ncn(CC2(O)CCN(C(=O)[C@@H]3CCC(F)(F)C[C@H]3c3ccccc3)CC2)c1=O (stereo partly drawn) [Example 114, 5-amino-3-({1-[(1R,2R)-4,4-difluoro-2-phenylcyclohexane-1-carbonyl]-4-hydroxypiperidin-4-yl}methyl)-6-{4-[2-(piperidin-2-yl)ethyl]phenoxy}pyrimidin-4(3H)-one] |  |  |
| 86.2 nM | Nc1c(Oc2ccc([C@@H](N)C(F)(F)F)cc2)ncn(CC2(O)CCN(C(=O)[C@@H]3CCC(F)(F)C[C@H]3c3ccccc3)CC2)c1=O [Example 116, 5-amino-6-{4-[(1R)-1-amino-2,2,2-trifluoroethyl]phenoxy}-3-({1-[(1R,2R)-4,4-difluoro-2-phenylcyclohexane-1-carbonyl]-4-hydroypiperidin-4-yl}methyl)pyrimidin-4(3H)-one] |  |  |
| 21.8 nM | Nc1c(Oc2ccc(F)cc2)ncn(CC2(O)CCN(C(=O)[C@@H]3CC[C@@](F)(C#Cc4ccccn4)C[C@H]3c3ccccc3)CC2)c1=O [Example 131, 5-amino-3-[(1-{[(1R,2R,4S)-4-fluoro-2-phenyl-4-[2-(pyridin-2-yl)ethynyl]cyclohexyl]carbonyl}-4-hydroxypiperidin-4-yl)methyl]-6-(4-fluorophenoxy)pyrimidin-4-one] |  |  |
| 36.4 nM | Nc1c(Oc2ccc(F)cc2)ncn(CC2(O)CCN(C(=O)[C@@H]3CC[C@](F)(C#Cc4ccccc4)C[C@H]3c3ccccc3)CC2)c1=O [Example 135, 5-amino-3-({1-[(1R,2R,4R)-4-fluoro-2-phenyl-4-(2-phenylethynyl)cyclohexanecarbonyl]-4-hydroxypiperidin-4-yl}methyl)-6-(4-fluorophenoxy)-3,4-dihydropyrimidin-4-one] |  |  |
| 197 nM | Nc1c(Oc2ccc(F)cc2)ncn(CC2(O)CCN(C(=O)[C@@H]3CC[C@@](F)(C#Cc4ccccc4)C[C@H]3c3ccccc3)CC2)c1=O [Example 136, 5-amino-3-({1-[(1R,2R,4S)-4-fluoro-2-phenyl-4-(2-phenylethynyl)cyclobexanecarbonyl]-4-hydroxypiperidin-4-yl}methyl)-6-(4-fluorophenoxy)-3,4-dihydropyrimidin-4-one] |  |  |
| 179 nM | C#C[C@@]1(OC)CC[C@@H](C(=O)N2CCC(O)(Cn3cnc(Oc4ccc(F)cc4)c(N)c3=O)CC2)[C@H](c2ccccc2)C1 [Example 155, 5-amino-3-[(1-{[(1R,2R,4R)-4-ethynyl-4-methoxy-2-phenylcyclohexyl]carbonyl}-4-hydroxypiperidin-4-yl)methyl]-6-(4-fluorophenoxy)pyrimidin-4-one] |  |  |
| 67.7 nM | Nc1c(Oc2ccc(F)cc2)ncn(CC2(O)CCN(C(=O)[C@@H]3CC[C@@](F)(C#Cc4cc(F)ccn4)C[C@H]3c3ccccc3)CC2)c1=O [Example 158, 5-amino-3-({1-[(1R,2R,4S)-4-fluoro-4-[2-(4-fluoropyridin-2-yl)ethynyl]-2-phenylcyclohexanecarbonyl]-4-hydroxypiperidin-4-yl}methyl)-6-(4-fluorophenoxy)-3,4-dihydropyrimidin-4-one] |  |  |
| 138 nM | CO[C@]1(C(=O)N2CCC(O)(Cn3cnc(Oc4ccc(F)cc4)c(N)c3=O)CC2)CC[C@H](C#Cc2nccn2C)C[C@@H]1c1ccccc1 [Example 160, 5-amino-6-(4-fluorophenoxy)-3-[(4-hydroxy-1-{[(1R,2R,4S)-1-methoxy-4-[2-(1-methylimidazol-2-yl)ethynyl]-2-phenylcyclohexyl]carbonyl}piperidin-4-yl)methyl]pyrimidin-4-one] |  |  |
